Consider three compounds from patent EP0142075A2, “Purine derivatives, their preparation, and medicaments containing these compounds” (Dr. Karl Thomae GmbH, priority 1983, dated 1985).

Where two headings read alike, the source gives them in different places. Some results are limits rather than exact numbers.

Data set [1] is described as follows: Acute toxicity (orientating), single oral dose in mice. The settings on record: mouse, in vivo, read-out: Orientierend akute Toxizität. As to the method:
(§1) Die akute Toxizität der zu untersuchenden Substanzen wurde orientierend an Gruppen von je 10 Mäusen nach oraler Gabe einer Einzeldosis von 300 mg/kg bestimmt (Beobachtungszeit: 14 Tage): […]

In data set [2] the test system is Mäusen. The data set is described as above. The following applies: in vivo, po, 300 mg/kg. How it is done:
as §1

Where [3] appears, read: mice, groups of 10, single oral dose of 300 mg/kg, observation time 14 days.

Take `C#CCOc1ccc(-c2nc3ncncc3[nH]2)c(OC)c1` [Substanz A, 8-(2-Methoxy-4-propargyloxyphenyl)-purin]: the LD50 at 336 h in data set [1] (setting [3]) was over 300 mg/kg. This compound came in with a Tieren gestorben in data set [2] of 0 von 10.
For `COC(=O)COc1ccc(-c2nc3ncncc3[nH]2)c(OC)c1` [Substanz B, 8-(2-Methoxy-4-methoxycarbonylmethoxyphenyl)-purin], in that order: over 300 mg/kg and 0 von 10.
Consider `COc1cc(OCC#N)ccc1-c1nc2cncnc2[nH]1` [Substanz C, 8-(2-Methoxy-4-cyanmethoxyphenyl)-purin], for which the LD50 at 336 h in data set [1] (po, 300 mg/kg) was over 300 mg/kg. The Tieren gestorben in data set [2] was > 300 mg/kg (O von 10 Tieren gestorben).
